Tests used:
H22 liver cancer = assay: Inhibition of KM mice-transplanted tumor of H22 liver cancer; assay type: in vivo
Protocol: (1) Animal Kunming mice, half male and half female, body weight 16˜27 g.
Cell Lines H22 cell lines were mice liver cancer cells, and were subjected to suspension growth in RPMI-1640 media containing 10% calf serum, 100 U·ml^−1 penicillin, 100 μg·ml^−1 streptomycin, and cultured in an incubator at 37° C. under 5% CO2, followed by changing the medium and subculturing every two or three days.
Cell Culture H22 cells in exponential phase of growth were collected, centrifugated at 1000 rpm for 5 min, and washed twice. Viable cells were counted by trypan blue staining. The cells were quickly inoculated in abdominal cavity of KM mice, and after 7˜10 days, ascites were drawn and subcutaneously inoculated at the left forelimb armpit of mice at 0.2 ml/animal (containing about 2×10^7 cells). When tumor grew to 1 cm×1 cm×1 cm, mice were used in experiment. Mice tumors were aseptically stripped, and washed with Hank's solution thrice, to remove blood, fat and necrotic tissues. Tumors were cut to broken pieces of 1 mm×1 mm×1 mm, and washed with Hank's solution twice, to which physiological saline was added at a ratio of (1 g:3 ml), and then ground in a glass homogenizer and filtered by 80-100 mesh sieve to make a suspension of single cell. Viable cells were counted by trypan blue staining.
On the second day after inoculation, a dosage of 0.2 ml·10 g^−1 was administrated by intravenous injection (iv), once a day. When the average tumor weight in negative group was more than 1.0 g (tumor volume being about 0.5 cm^3), the experiment was stopped, and mice were sacrificed by cervical vertebrae removal and weighed. Tumors were stripped to calculate inhibitory rate.

human brain glioma = assay: Inhibition of mice-transplanted human brain glioma; assay type: in vivo; settings: 15 days, mice
Protocol: Human brain glioma cell lines were obtained from Key Laboratory of Transplant Engineering and Immunology, Ministry of health, West China Hospital, Sichuan University.
(1) Model establishment Mice were divided into groups, 10 mice for each group. The solution of brain glioblastoma cell lines was suitably diluted, and inoculated in cortex of left temporal lobe of mice, respectively.
Administration and intervention 24 h after inoculation, mice in each group were administrated by intraperitoneal injection. […] Each group was administrated for successive 15 days.
Determination of tumor inhibitory rate On the last day, the administration was stopped, and all mice were sacrificed and dissected. Tumor tissues were stripped and weighed. Tumor inhibitory rate %=(The mean tumor weight of control group−The mean tumor weight of drug groups)[The mean tumor weight of control group]×100%.
Statistical method The variance analysis of data was performed using the statistical program software package (SPSS13.0 for Windows), and p<0.05 was considered to be a statistically significant difference.

[1] = tested on: chemical liver injury (rat alcoholic fatty liver model); assay: Protective effect on chemical liver injury (rat alcoholic fatty liver model); assay type: in vivo, rats; settings: 30 days; for GSH / SOD: liver homogenate; for ALT / AST: serum
Protocol: Experimental grouping and dose design: Female SD rats were randomly divided to groups, 10 rats for each group, […], 70 mg·kg^−1, 85 mg·kg^−1, 100 mg·kg^−1, 120 mg·kg^−1, 140 mg·kg^−1, 160 mg·kg^−1, 180 mg·kg^−1, […], together with a negative control group and 50% ethanol model control group. Liver injury model was induced by ethanol (analytical pure).
Determination of ALT, AST, TG in serum of rats; Determination of SOD, MDA, reduced glutathione (GSH) in liver homogenate.
Statistics of experimental data: Statistical analysis of experimental data was performed using software package of SPSS 19.0 for windows.

[2] = 1 mg·kg^−1 intraperitoneal injection
[3] = 5 mg·kg^−1 intraperitoneal injection
[4] = 30 mg·kg^−1 intraperitoneal injection
[5] = 40 mg·kg^−1 intraperitoneal injection
[6] = 70 mg·kg^−1 intraperitoneal injection
[7] = 80 mg·kg^−1 intraperitoneal injection
[8] = 90 mg·kg^−1 intraperitoneal injection
[9] = 100 mg·kg^−1 intraperitoneal injection

## O=C(/C=C/c1ccc(O)c(O)c1)O[C@@H]1C[C@](O)(C(=O)O)C[C@@H](O)[C@H]1O [Commercially available chlorogenic acid, chlorogenic acid, reference compound]
H22 liver cancer; 1 mg·kg^−1 iv once a day
  Inhibitory rate: 5.1%
  Tumor weight: 2.228 ± 0.538 g
H22 liver cancer; 5 mg·kg^−1 iv once a day
  Inhibitory rate: 17.4%
  Tumor weight: 1.939 ± 0.357 g
H22 liver cancer; 10 mg·kg^−1 iv once a day, listed as Commercially availaavailable chlorogenic
  Inhibitory rate: 32.6%
H22 liver cancer; 20 mg·kg^−1 iv once a day, listed as Commercially availaavailable chlorogenic
  Inhibitory rate: 31.8%
H22 liver cancer; 30 mg·kg^−1 iv once a day
  Inhibitory rate: 31.9%
H22 liver cancer; 40 mg·kg^−1 iv once a day
  Inhibitory rate: 28.1%
H22 liver cancer; 50 mg·kg^−1 iv once a day
  Inhibitory rate: 23.4%
  Tumor weight: 1.799 ± 0.462 g
H22 liver cancer; 60 mg·kg^−1 iv once a day
  Inhibitory rate: 21.3%
  Tumor weight: 1.848 ± 0.741 g
H22 liver cancer; 70 mg·kg^−1 iv once a day
  Inhibitory rate: 14.6%
  Tumor weight: 2.005 ± 0.345 g
H22 liver cancer; 80 mg·kg^−1 iv once a day
  Inhibitory rate: 13.7%
  Tumor weight: 2.026 ± 0.611 g
H22 liver cancer; 90 mg·kg^−1 iv once a day
  Inhibitory rate: 9.8%
  Tumor weight: 2.118 ± 0.557 g
H22 liver cancer; 100 mg·kg^−1 iv once a day
  Inhibitory rate: 7.2%
  Tumor weight: 2.179 ± 0.341 g
Human brain glioma; [2]
  Inhibitmy rate: 9.10%
  Tumor weight: 1.319 ± 0.245 g
Human brain glioma; [3]
  Inhibitmy rate: 11.16%
  Tumor weight: 1.289 ± 0.289 g
Human brain glioma; 10 mg·kg^−1 intraperitoneal injection
  Inhibitmy rate: 19.09%
Human brain glioma; 20 mg·kg^−1 intraperitoneal injection
  Inhibitmy rate: 24.12%
Human brain glioma; [4]
  Inhibitmy rate: 30.74%
  Tumor weight: 1.005 ± 0.225 g
Human brain glioma; [5]
  Inhibitmy rate: 31.91%
  Tumor weight: 0.988 ± 0.025 g
Human brain glioma; 50 mg·kg^−1 intraperitoneal injection
  Inhibitmy rate: 23.85%
Human brain glioma; 60 mg·kg^−1 intraperitoneal injection
  Inhibitmy rate: 22.47%
Human brain glioma; [6]
  Inhibitmy rate: 15.58%
  Tumor weight: 1.225 ± 0.534 g
Human brain glioma; [7]
  Inhibitmy rate: 12.13%
  Tumor weight: 1.275 ± 0.043 g
Human brain glioma; [8]
  Inhibitmy rate: 11.30%
  Tumor weight: 1.287 ± 0.323 g
Human brain glioma; [9]
  Inhibitmy rate: 7.79%
  Tumor weight: 1.338 ± 0.187 g
[1]; 10 mg·kg^−1 intragastric
  GSH: 12.57 ± 3.84 mg/g
  SOD: 26.15 ± 2.45 nmol/mg
  ALT: 58.67 ± 2.89 U/L
  AST: 194.12 ± 6.32 U/L
[1]; 20 mg·kg^−1 intragastric
  GSH: 13.62 ± 4.87 mg/g
  SOD: 27.24 ± 2.78 nmol/mg
  ALT: 57.41 ± 3.15 U/L
  AST: 193.89 ± 3.84 U/L
[1]; 35 mg·kg^−1 intragastric
  GSH: 14.83 ± 5.47 mg/g
  SOD: 28.05 ± 1.45 nmol/mg
  ALT: 56.84 ± 2.87 U/L
  AST: 192.12 ± 5.12 U/L
[1]; 50 mg·kg^−1 intragastric
  GSH: 15.57 ± 3.16 mg/g
  SOD: 29.14 ± 3.78 nmol/mg
  ALT: 56.88 ± 2.64 U/L
  AST: 190.56 ± 4.28 U/L
[1]; 70 mg·kg^−1 intragastric
  GSH: 16.88 ± 2.78 mg/g
  SOD: 30.55 ± 2.05 nmol/mg
  ALT: 55.14 ± 1.65 U/L
  AST: 190.88 ± 3.65 U/L
[1]; 85 mg·kg^−1 intragastric
  GSH: 17.37 ± 3.87 mg/g
  SOD: 31.04 ± 2.58 nmol/mg
  ALT: 53.24 ± 6.11 U/L
  AST: 198.87 ± 2.78 U/L
[1]; 100 mg·kg^−1 intragastric
  GSH: 18.00 ± 3.21 mg/g
  SOD: 32.54 ± 3.47 nmol/mg
  AST: 187.12 ± 4.57 U/L
[1]; 120 mg·kg^−1 intragastric
  GSH: 18.24 ± 6.48 mg/g
  SOD: 33.65 ± 5.01 nmol/mg
  AST: 184.25 ± 3.49 U/L
[1]; 140 mg·kg^−1 intragastric
  GSH: 18.65 ± 3.48 mg/g
  SOD: 33.29 ± 2.68 nmol/mg
  AST: 182.36 ± 3.87 U/L
[1]; 160 mg·kg^−1 intragastric
  GSH: 17.55 ± 4.87 mg/g
  SOD: 33.12 ± 1.75 nmol/mg
  AST: 180.15 ± 6.48 U/L
[1]; 180 mg·kg^−1 intragastric
  GSH: 17.98 ± 5.94 mg/g
  SOD: 32.87 ± 2.16 nmol/mg
  AST: 179.54 ± 4.16 U/L
[1]; 200 mg·kg^−1 intragastric
  GSH: 16.49 ± 4.21 mg/g
  SOD: 31.11 ± 2.54 nmol/mg
  AST: 185.48 ± 3.94 U/L
[1]; 220 mg·kg^−1 intragastric
  GSH: 15.31 ± 3.46 mg/g
  SOD: 28.15 ± 2.04 nmol/mg
  AST: 188.34 ± 5.87 U/L
